What all share (format): cell-based
One experiment deals with T1, A431 (EGFR_WT) (Homo sapiens, UniProt P00533).
T1 construct: endogenous in cells; host or cells: A431, NCI-H2073, NCI-H292
The experiment can be described thus: EGFR degradation assay (western blot), A431 cells. As to conditions: compounds 24 h, western blot, read-out: A431 DC50. How it is done: (§1) A431 (EGFR_WT), NCl-H2073 (EGFR_WT), NCl-H292 (EGFR_WT), BaF3_YVAM (Her2_A775insYVAM), BaF3_SVD (EGFR_D770insSVD), BaF3_ASV (EGFR_A776inASV), or BaF3_DTC (EGFR_Exon19del/T790M/C797S) cells were seeded in a 24-well plate at a density of 4×10^5 cells per well for EGFR WT cells and 8× cells per well for EGFR or Her2 mutant cells, and the plates were incubated overnight. The cells were treated with the desired compounds for 24 h. The culture medium was removed, and 100 μL of RIPA buffer (Beyotime, P0013B) containing 1% Protease Inhibitor Cocktail (Bimake, B14001), 1% Phosphatase Inhibitor Cocktail 2 (Sigma, P5726), and 1% Phosphatase Inhibitor Cocktail 3 (Sigma, P0044) were added to lyse the cells. Then, the cell lysates were transferred to 1.5 mL microcentrifuge tubes and centrifuged at 12,000 rpm and 4° C. for 30 min. The supernatants were transferred into new tubes, and the protein concentration was determined using the BCA protein quantification method. All samples were diluted to the same concentration using RIPA buffer, loading buffer was added, samples were denatured, and 15 μg of protein per lane was loaded onto a SurePAGE 4-20% Bis-Tris gel. Samples were separated via electrophoresis in MOPS running buffer at 180 V for 100 min. Then, proteins were transferred onto PVDF membranes using the MiniBlot™ Electrophoretic Transfer Cell Device (Beyotime, E6050). The membrane was blocked using block buffer (LI-COR 927-60001) to prevent non-specific binding. The membrane was incubated with primary antibodies (1:500 dilution, EGFR-CST4405, 1:2000 dilution, Tubulin-ABclonal #AC021) at 4° C. overnight. The membrane was washed three times with 1× TBST buffer for 15 min each. The membrane was incubated with secondary antibodies IRDye 680RD Goat anti-Rabbit IgG Secondary Antibody (1:2000 dilution, LI-COR 926-68071) and IRDye 800CW Goat anti-Mouse IgG Secondary Antibody (1:2000 dilution, LI-COR 926-32210). Finally, the membrane was washed again with 1× TBST buffer 3 times. Fluorescence was detected using the Odyssey CLx Imaging System, and the data were analyzed with Empiria Studio Software and GraphPad Prism 9. Table 4 and Table 5 list the degradation results, where the degradation potency is represented by DC50, the concentration of compounds to cause the degradation of 50% of the corresponding proteins. FIGS. 45-49 show western blots illustrating the EGFR degradative activity of exemplary Compound of the present disclosure and a comparator Compound A in different cell lines 24 h after administration. The Compound referred herein as Compound A is disclosed in WO 2022/171123 A1 (see, compound 133, page 46; published Aug. 18, 2022). WO 2022/171123 A1 discloses phosphine oxide derived molecules with EGFR degradation activity.

The subject of experiment [1] is BaF3_DTC (EGFR_Exon19del/T790M/C797S). The experiment can be described thus: EGFR degradation assay (western blot), BaF3_DTC cells. The conditions noted are these: BaF3_DTC cells (EGFR_Exon19del/T790M/C797S), compounds 24 h, western blot; read-out: BaF3_DTC DC50. Here is the method:
as §1

Experiment [2] has as its target T2, BaF3_ASV (EGFR_A776inASV) (Homo sapiens, UniProt P00533, DUP767-769).
T2 construct: expressed in transfected cells; host or cells: Ba/F3 (engineered)
The experiment can be described thus: EGFR degradation assay (western blot), BaF3_ASV cells. The conditions noted are these: BaF3_ASV cells, compounds 24 h, western blot; read-out: BaF3_ASV DC50. How it is done:
as §1

For the next experiment, the system named is A431. The experiment can be described thus: Cell growth inhibition assay (CellTiter-Glo), A431. As to conditions: Homo sapiens, A-431, 72 h, Table 6; A431 cells, three days, CellTiter-Glo; read-out: A431 GI50. How it is done: (§2) Cells were seeded in a 96-well plate (Corning 3610) with 90 μL of culture medium per well, and plates were incubated at 37° C. overnight. A 1,000× DMSO stock solution of the desired compound was prepared the following day. A compound dilution plate was prepared by diluting the stock solution 1:100 in the corresponding cell culture medium, 10 μL of the diluted compound solution was added to each 96-well plate well containing the seeded cells. […] The content of the wells was mixed by shaking continuously for 10 min, and luminescence was measured using Envision (PerkinElmer). The data were analyzed with GraphPad Prism 9 (see FIG. 50).
(§3) Table 6, Table 7, and Table 8 list the cell growth inhibition results, where Gls0 represents the compound concentration to cause 50% cell growth inhibition in comparison with DMSO.

The next experiment has as its system BaF3_DTC. As to the kind of experiment: Cell growth inhibition assay (CellTiter-Glo), BaF3_DTC. As to conditions: 72 h; Table 6; BaF3_DTC cells, three days, CellTiter-Glo; read-out: BaF3_DTC GI50. Here is the method: as §2, §3
The subject of a further experiment is BaF3_ASV. The experiment can be described thus: Cell growth inhibition assay (CellTiter-Glo), BaF3_ASV. As to conditions: 72 h; Table 6; BaF3_ASV cells, three days, CellTiter-Glo; read-out: BaF3_ASV GI50. Here is the method: as §2, §3

T2 sequence (P00533 with tags, fused parts or gaps DUP767-769): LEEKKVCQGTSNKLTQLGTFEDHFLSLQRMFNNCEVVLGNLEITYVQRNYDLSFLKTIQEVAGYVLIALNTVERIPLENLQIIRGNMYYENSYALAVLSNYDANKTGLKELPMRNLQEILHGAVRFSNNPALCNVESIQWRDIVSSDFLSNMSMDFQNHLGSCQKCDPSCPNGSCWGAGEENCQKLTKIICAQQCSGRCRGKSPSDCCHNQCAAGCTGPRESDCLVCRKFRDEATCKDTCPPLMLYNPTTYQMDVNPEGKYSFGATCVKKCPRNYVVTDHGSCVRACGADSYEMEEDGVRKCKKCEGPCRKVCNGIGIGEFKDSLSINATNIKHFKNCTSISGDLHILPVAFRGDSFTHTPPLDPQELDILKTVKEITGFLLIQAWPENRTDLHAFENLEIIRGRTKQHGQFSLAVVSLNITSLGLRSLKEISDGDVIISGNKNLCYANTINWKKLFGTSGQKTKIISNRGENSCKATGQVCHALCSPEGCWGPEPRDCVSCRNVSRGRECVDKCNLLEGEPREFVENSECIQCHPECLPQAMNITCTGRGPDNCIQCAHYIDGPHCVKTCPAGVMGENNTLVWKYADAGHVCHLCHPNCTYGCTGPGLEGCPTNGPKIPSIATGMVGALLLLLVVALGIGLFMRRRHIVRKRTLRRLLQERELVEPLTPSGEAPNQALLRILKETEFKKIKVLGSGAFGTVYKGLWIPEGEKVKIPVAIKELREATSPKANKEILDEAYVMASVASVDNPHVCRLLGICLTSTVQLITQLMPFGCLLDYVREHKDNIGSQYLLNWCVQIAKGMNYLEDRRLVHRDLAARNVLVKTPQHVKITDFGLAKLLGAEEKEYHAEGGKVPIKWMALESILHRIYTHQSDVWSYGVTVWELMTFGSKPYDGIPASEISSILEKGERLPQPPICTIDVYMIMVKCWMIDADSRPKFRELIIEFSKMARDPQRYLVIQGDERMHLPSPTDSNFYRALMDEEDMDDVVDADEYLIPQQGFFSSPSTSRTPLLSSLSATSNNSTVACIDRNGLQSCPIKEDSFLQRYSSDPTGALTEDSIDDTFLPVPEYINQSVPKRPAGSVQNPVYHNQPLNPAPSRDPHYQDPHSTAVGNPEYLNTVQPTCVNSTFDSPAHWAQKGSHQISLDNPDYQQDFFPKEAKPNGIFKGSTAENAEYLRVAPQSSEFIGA
T1 sequence (P00533 25-1210): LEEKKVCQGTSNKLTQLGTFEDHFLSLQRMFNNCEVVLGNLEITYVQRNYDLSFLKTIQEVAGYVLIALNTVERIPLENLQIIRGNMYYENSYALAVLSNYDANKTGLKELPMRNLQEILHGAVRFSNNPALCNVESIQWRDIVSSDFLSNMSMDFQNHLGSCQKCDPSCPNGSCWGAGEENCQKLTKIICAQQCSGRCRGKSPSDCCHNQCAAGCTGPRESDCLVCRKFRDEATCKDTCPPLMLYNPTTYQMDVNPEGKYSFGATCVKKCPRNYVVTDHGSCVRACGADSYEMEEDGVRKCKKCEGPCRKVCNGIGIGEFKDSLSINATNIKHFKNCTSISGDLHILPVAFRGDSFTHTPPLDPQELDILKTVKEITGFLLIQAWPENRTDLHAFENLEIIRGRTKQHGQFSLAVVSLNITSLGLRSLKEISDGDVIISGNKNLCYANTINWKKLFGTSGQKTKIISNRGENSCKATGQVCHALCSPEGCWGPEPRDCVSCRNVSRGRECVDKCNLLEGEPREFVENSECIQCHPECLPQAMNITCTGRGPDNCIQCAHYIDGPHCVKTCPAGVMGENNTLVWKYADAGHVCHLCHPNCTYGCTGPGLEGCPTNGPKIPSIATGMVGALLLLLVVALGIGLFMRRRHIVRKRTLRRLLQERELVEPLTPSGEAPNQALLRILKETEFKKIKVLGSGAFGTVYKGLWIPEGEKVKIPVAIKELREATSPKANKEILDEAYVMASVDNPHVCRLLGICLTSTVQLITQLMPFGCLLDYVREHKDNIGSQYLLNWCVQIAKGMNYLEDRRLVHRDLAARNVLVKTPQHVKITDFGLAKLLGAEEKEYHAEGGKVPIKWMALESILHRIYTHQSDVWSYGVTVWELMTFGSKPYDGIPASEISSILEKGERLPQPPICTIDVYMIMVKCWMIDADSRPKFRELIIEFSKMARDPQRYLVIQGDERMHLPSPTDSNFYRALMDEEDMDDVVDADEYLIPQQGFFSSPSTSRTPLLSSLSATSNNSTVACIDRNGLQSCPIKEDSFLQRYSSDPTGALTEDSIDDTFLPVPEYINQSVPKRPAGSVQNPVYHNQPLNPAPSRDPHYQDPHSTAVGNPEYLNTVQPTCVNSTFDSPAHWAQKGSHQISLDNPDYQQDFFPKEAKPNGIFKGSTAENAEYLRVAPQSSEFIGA

For `CCc1cc(Nc2ncc(Br)c(Nc3ccc4nccnc4c3NS(C)(=O)=O)n2)c(OC)cc1N1CCC(N2CCN(CC3CCN(c4ccc5c(c4)C(=O)N(C4CCC(=O)NC4=O)C5=O)CC3)CC2)CC1` (stereo not shown) [Compound 6, N-(6-((5-bromo-2-((4-(4-(4-((1-(2-(2,6-dioxopiperidin-3-yl)-1,3-dioxoisoindolin-5-yl)piperidin-4-yl)methyl)piperazin-1-yl)piperidin-1-yl)-5-ethyl-2-methoxyphenyl)amino)pyrimidin-4-yl)amino)quinoxalin-5-yl)methanesulfonamide], the DC50 at A431 (EGFR_WT) was > 1000 nM; in experiment [1], 5.94 nM; in experiment [2], 289 nM. Also, the GI50 is > 1000 nM in the experiment with A431, 11.2 nM with BaF3_DTC and 282 nM in the experiment with BaF3_ASV.
As to `CCc1cc(Nc2ncc(Br)c(Nc3ccc4nccnc4c3NS(C)(=O)=O)n2)c(OC)cc1N1CCC(N2CCN(CC3CCN(c4ccc5c(c4)CN(C4CCC(=O)NC4=O)C5=O)CC3)CC2)CC1` (stereo not shown) [Compound 7, N-(6-((5-bromo-2-((4-(4-(4-((1-(2-(2,6-dioxopiperidin-3-yl)-1-oxoisoindolin-5-yl)piperidin-4-yl)methyl)piperazin-1-yl)piperidin-1-yl)-5-ethyl-2-methoxyphenyl)amino)pyrimidin-4~yl)amino)quinoxalin-5-yl)methanesulfonamide], the DC50 is > 1000 nM at A431 (EGFR_WT), 2.43 nM in experiment [1] and 16.6 nM in experiment [2]. Further, the GI50 with A431 is > 1000 nM; in the experiment on BaF3_DTC, 2.84 nM; in the experiment with BaF3_ASV it was 41.9 nM.
As for `CCc1cc(Nc2ncc(Br)c(Nc3ccc4nccnc4c3NS(C)(=O)=O)n2)c(OC)cc1N1CCC(N2CCN(CCc3cccc4c3C(=O)N(C3CCC(=O)NC3=O)C4)CC2)CC1` (stereo not shown) [Compound 8, N-(6-((5-bromo-2-((4-(4-(4-(2-(2-(2,6-dioxopiperidin-3-yl)-3-oxoisoindolin-4-yl)ethyl)piperazin-1-yl)piperidin-1-yl)-5-ethyl-2-methoxyphenyl)amino)pyrimidin-4-yl)amino)quinoxalin-5-yl)methanesulfonamide], the results for the DC50 (on A431 (EGFR_WT); in experiment [1]; in experiment [2]) were > 1000 nM, 23.3 nM and > 1000 nM, respectively. The GI50 with A431 was > 1000 nM; in the experiment with BaF3_DTC, 24.7 nM; in the experiment with BaF3_ASV, 858 nM.
Consider `CCc1cc(Nc2ncc(Br)c(Nc3ccc4nccnc4c3NS(C)(=O)=O)n2)c(OC)cc1N1CCC(N2CCN(CCc3cccc4c3CN(C3CCC(=O)NC3=O)C4=O)CC2)CC1` (stereo not shown) [Compound 9, N-(6-((5-bromo-2-((4-(4-(4-(2-(2-(2,6-dioxopiperidin-3-yl)-1-oxoisoindolin-4-yl)ethyl)piperazin-1-yl)piperidin-1-yl)-5-ethyl-2-methoxyphenyl)amino)pyrimidin-4-yl)amino)quinoxalin-5-yl)methanesulfonamide], for which the 50% degradation concentration (DC50) at A431 (EGFR_WT) was > 1000 nM; in experiment [1], 8.05 nM; in experiment [2], 251 nM. The figures for the 50% growth inhibitory concentration (GI50) in the experiment with A431, in the experiment with BaF3_DTC and in the experiment on BaF3_ASV were > 1000 nM, 14.7 nM and 563 nM, respectively.
`CCc1cc(Nc2ncc(Br)c(Nc3ccc4nccnc4c3NS(C)(=O)=O)n2)c(OC)cc1N1CCC(CN2CC3(CCN(c4ccc5c(c4)CN(C4CCC(=O)NC4=O)C5=O)CC3)C2)CC1` (stereo not shown) [Compound 58, N-(6-((5-bromo-2-((4-(4-((7-(2-(2,6-dioxopiperidin-3-yl)-1-oxoisoindolin-5-yl)-2,7-diazaspiro[3.5]nonan-2-yl)methyl)piperidin-1-yl)-5-ethyl-2-methoxyphenyl)amino)pyrimidin-4-yl)amino)quinoxalin-5-yl)methanesulfonamide]: the 50% degradation concentration (DC50) was determined as 10.4 nM in experiment [1] and 23 nM in experiment [2]. Also, the concentration for 50% growth inhibition (GI50) in the experiment on A431 is > 1000 nM; in the experiment on BaF3_DTC, 11.2 nM; in the experiment on BaF3_ASV, 49 nM.
In the case of `CCc1cc(Nc2ncc(Br)c(Nc3ccc4nccnc4c3NS(C)(=O)=O)n2)c(OC)cc1N1CCC(N2CC(CN3CCN(c4ccc5c(c4)CN([C@H]4CCC(=O)NC4=O)C5=O)CC3)C2)CC1` [Compound 62, (S)-N-(6-((5-bromo-2-((4-(4-(3-((4-(2-(2,6-dioxopiperidin-3-yl)-1-oxoisoindolin-5-yl)piperazin-1-yl)methyl)azetidin-1-yl)piperidin-1-yl)-5-ethyl-2-methoxyphenyl)amino)pyrimidin-4-yl)amino)quinoxalin-5-yl)methanesulfonamide], the values for the DC50 in experiment [1] and in experiment [2] were 5.18 nM and 75.2 nM, respectively. In addition, the figures for the GI50 in the experiment with A431, in the experiment with BaF3_DTC and with BaF3_ASV were 383 nM, 19.3 nM and 130 nM, respectively.
The matching figures for `CCc1cc(Nc2ncc(Br)c(Nc3ccc4nccnc4c3NS(C)(=O)=O)n2)c(OC)cc1N1CCC(N2CC(N3CCN(c4ccc5c(c4)CN([C@H]4CCC(=O)NC4=O)C5=O)CC3)C2)CC1` [Compound 63, (S)-N-(6-((5-bromo-2-((4-(4-(3-(4-(2-(2,6-dioxopiperidin-3-yl)-1-oxoisoindolin-5-yl)piperazin-1-yl)azetidin-1-yl)piperidin-1-yl)-5-ethyl-2-methoxyphenyl)amino)pyrimidin-4-yl)amino)quinoxalin-5-yl)methanesulfonamide]: 12.9 nM, 18.2 nM, > 1000 nM, 6.23 nM and 40.8 nM.
The matching figures for `CCc1cc(Nc2ncc(Br)c(Nc3ccc4nccnc4c3NS(C)(=O)=O)n2)c(OC)cc1N1CCC(N2CCN(CCC3CCN(c4cc(F)c(C5CCC(=O)NC5=O)c(F)c4)CC3)CC2)CC1` (stereo not shown) [Compound 90, N-(6-((5-bromo-2-((4-(4-(4-(2-(1-(4-(2,6-dioxopiperidin-3-yl)-3,5-difluorophenyl)piperidin-4-yl)ethyl)piperazin-1-yl)piperidin-1-yl)-5-ethyl-2-methoxyphenyl)amino)pyrimidin-4-yl)amino)quinoxalin-5-yl)methanesulfonamide]: 38.6 nM, 135 nM, > 1000 nM, 19.1 nM and 89.4 nM.
On to `CCc1cc(Nc2ncc(Br)c(Nc3ccc4nccnc4c3NS(C)(=O)=O)n2)c(OC)cc1N1CCC(N2CCN(CCNc3cccc4c3CN(C3CCC(=O)NC3=O)C4=O)CC2)CC1` (stereo not shown) [Compound 91, N-(6-((5-bromo-2-((4-(4-(4-(2-((2-(2,6-dioxopiperidin-3-yl)-1-oxoisoindolin-4-yl)amino)ethyl)piperazin-1-yl)piperidin-1-yl)-5-ethyl-2-methoxyphenyl)amino)pyrimidin-4-yl)amino)quinoxalin-5-yl)methanesulfonamide], for which the DC50 in experiment [1] is 8.04 nM; in experiment [2] it was 53.7 nM. Also, the GI50 in the experiment with A431 was found to be 448 nM; with BaF3_DTC it was 9.26 nM; in the experiment with BaF3_ASV, 48.6 nM.

The values are drawn from patent US20250002473A1, “QUINOXALINE DERIVED SULFONAMIDES WITH EGFR DEGRADATION ACTIVITIES AND THEIR USES THEREOF” (Accutar Biotechnology Inc., priority 2023, published 2025).
